# Laboratory results: patent US20240043928A1, “BIOMARKERS FOR MYELODYSPLASTIC SYNDROME (MDS) AND METHODS OF USING THE SAME” (Eisai R&D Management Co., Ltd., priority 2020, published 2024)
# Test system: patients with myelodysplastic syndrome (MDS), chronic myelomonocytic leukemia (CMML), or acute myeloid leukemia (AML)
# Assay: Phase I study NCT02841540: clinical response and transfusion independence
# Type: in vivo, human
# Protocol: Clinical responses were assessed using the 2006 International Working Group (IWG) response criteria for MDS (Cheson et al. Blood. 2006;108:419-425), the IWG 2003 criteria for AML, and the 2015 international consortium proposal of uniform response criteria for myelodysplastic/myeloproliferative neoplasms (MDS/MPN) and CMML (Savona et al. Blood. 2015;125(12):1857-1865). Peripheral blood sampling, bone marrow aspirates, bone marrow biopsies, marrow cytogenetics, and cellular composition by flow cytometry were performed at the time of screening, and after Cycles 1, 2, and 4. Beyond Cycle 4, bone marrow aspirates were performed as clinically indicated based on changes in peripheral blood count, or as needed to establish either complete response or disease progression. An independent central confirmation and interpretation was performed for disease assessments.
# [1] = patient: CMML, IPSS Lower, starting dose 7 mg
# [2] = patient: MDS (baseline Hb 9.1 g/dL), IPSS Lower, starting dose 5 mg
# [3] = patient: MDS, IPSS Higher, starting dose 2 mg
# [4] = patient: MDS, IPSS Higher, starting dose 7 mg
# [5] = patient: MDS, IPSS Lower, donor one, starting dose 7 mg
# [6] = patient: MDS, IPSS Lower, starting dose 2 mg (7 mg during last two RBC TI periods)
# [7] = patient: MDS, IPSS Lower, starting dose 3.5 mg
# [8] = patient: MDS/MPN (RARS-T), IPSS Lower, starting dose 2 mg
structure (smiles),measurement,setting,value
"C/C(=C\C=C\[C@@H](C)c1ccccn1)[C@H]1OC(=O)C[C@H](O)CC[C@@](C)(O)[C@@H](OC(=O)N2CCN(C)CC2)/C=C/[C@@H]1C [Compound 1, (2S,3S,4E,6S,7R,10R)-7,10-dihydroxy-3,7-dimethyl-12-oxo-2-[(2E,4E,6R)-6-(pyridine-2-yl)hepta-2,4-dien-2-yl]oxacyclododec-4-en-6-yl-4-methylpiperazine-1-carboxylate]",RBC TI periods,4 patients with SF3B1 mutations and a diagnosis of AML,No RBC TI periods were observed
same,patients who experienced events of RBC TI,5 of the 7 MDS patients with pre-treatment TMEM14C AJ/CJ >4.01,71%
same,patients who experienced RBC TI events,5 of the 20 patients with missense SF3B1 mutations at study entry,25%
same,patients with intervals of >56 days without RBC transfusions,"9 of 62 patients transfusion dependent at study entry, as of April 2020, all Schedule I",15%
same,RBC TI rate,CMML (1 subject),25%
same,RBC TI rate,MDS (8 cases),19%
same,complete or partial responses meeting 2006 IWG criteria,all patients,No complete or partial responses
same,Median duration of RBC TI,"human, in vivo",13 weeks
same,Median time to onset of RBC TI,"human, in vivo",15 weeks
same,"additional RBC TI cases, transfusion dependence prior to study entry not verified","human, in vivo","Two additional patients (1 AML, 1 MDS) experienced RBC TI periods of >56 days"
same,clinical benefit (platelet response) (MDS/MPN criteria),in the 4 subjects with CMML,1
same,complete cytogenetic remission (MDS/MPN criteria),in the 4 subjects with CMML,1
same,patients who experienced RBC TI at the 7 mg dose,of the patients with RBC TI,Four of the 9
same,patients whose first RBC TI initiated in weeks 1-24 of the study,of the patients with RBC TI,8 of the 9
same,platelet transfusion independence without RBC TI,"one higher risk MDS patient, 7 mg, Schedule II",22 week
same,Longest RBC TI Period,[1],66 days
same,Number of RBC TI Periods,[1],1
same,Time to First RBC TI,[1],4 days
same,Longest RBC TI Period,[2],87 days
same,Number of RBC TI Periods,[2],1
same,Time to First RBC TI,[2],398 days
same,Longest RBC TI Period,[3],121 days
same,Number of RBC TI Periods,[3],1
same,Time to First RBC TI,[3],126 days
same,Longest RBC TI Period,[4],107 days
same,Number of RBC TI Periods,[4],1
same,Time to First RBC TI,[4],104 days
same,Longest RBC TI Period,[5],98 days
same,Number of RBC TI Periods,[5],4
same,Time to First RBC TI,[5],73 days
same,Longest RBC TI Period,[6],85 days
same,Number of RBC TI Periods,[6],5
same,Time to First RBC TI,[6],88 days
same,Longest RBC TI Period,[7],98 days
same,Number of RBC TI Periods,[7],2
same,Time to First RBC TI,[7],101 days
same,Longest RBC TI Period,[8],56 days
same,Number of RBC TI Periods,[8],1
same,Time to First RBC TI,[8],111 days
same,period of platelet transfusion independence,the CMML patient with RBC TI,21 week
